Reference: patent publication US20210238225A1, “PEPTIDOMIMETIC INHIBITORS OF THE PEPTIDYL-PROLYL CIS/TRANS ISOMERASE (PIN1)” (DANA-FARBER CANCER INSTITUTE, INC., priority 2018, published 2021)
Non-standard residues stand in square brackets, D forms with d. Residues, ends and D or L forms follow the SMILES beside them. *: point of attachment. Ala(9-anthryl) = N[C@@H](Cc1c2ccccc2cc2ccccc12)C(=O)O; Phe(4-tBu) = CC(C)(C)c1ccc(C[C@H](N)C(=O)O)cc1; Bip = N[C@@H](Cc1ccc(-c2ccccc2)cc1)C(=O)O; Dip = N[C@H](C(=O)O)C(c1ccccc1)c1ccccc1; Morpholine(3S-CO) = O=C(O)[C@@H]1COCCN1; 2Nal = N[C@@H](Cc1ccc2ccccc2c1)C(=O)O; Bta = N[C@@H](Cc1csc2ccccc12)C(=O)O; NMeY = CN[C@@H](Cc1ccc(O)cc1)C(=O)O; NMeE = CN[C@@H](CCC(=O)O)C(=O)O; pS = N[C@@H](COP(=O)(O)O)C(=O)O; Cit = NC(=O)NCCC[C@H](N)C(=O)O; aThr = C[C@H](O)[C@H](N)C(=O)O; Pip = O=C(O)[C@@H]1CCCCN1; Acryloyl = C=CC(=O)*; ClAc = O=C(CCl)*

Target: Pin1 (GST-Pin1) (Homo sapiens, UniProt Q13526)
Sequence (Q13526 whole entry): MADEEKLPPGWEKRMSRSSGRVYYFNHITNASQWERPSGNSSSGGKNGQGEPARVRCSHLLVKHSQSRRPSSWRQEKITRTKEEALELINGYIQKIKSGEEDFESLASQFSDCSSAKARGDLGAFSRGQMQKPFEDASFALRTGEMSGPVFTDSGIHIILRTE
Assay: Fluorescence polarization (FP) assay, binding to Pin1
Details: competition with fluorescein-labeled peptide probe; 12 hours pre-incubation at 4° C.; Kenakin Ki equation; read-out: Ki, μM (FP Assay)

Q: With `NC(=O)NCCC[C@H](NC(=O)[C@H](Cc1c[nH]c2ccccc12)NC(=O)[C@@H]1CCCCN1C(=O)[C@H](COP(=O)(O)O)NC(=O)CCl)C(N)=O` [Compound 2-21, (S)-3-((S)-2-(((S)-1-(((S)-1-Amino-1-oxo-5-ureidopentan-2-yl)amino)-3-(1H-indol-3-yl)-1-oxopropan-2-yl)carbamoyl)piperidin-1-yl)-2-(2-chloroacetamido)-3-oxopropyl dihydrogen phosphate] (ClAc-[pS][Pip]W[Cit]-NH2) as the compound, how does the Ki read?
A: The Ki was 0.004 µM.

Q: For `COC(=O)CC[C@H](NC(=O)CCl)C(=O)N1CCCC[C@H]1C(=O)N[C@@H](Cc1c[nH]c2ccccc12)C(=O)N[C@@H](Cc1ccccc1)C(N)=O` [Compound 2-23, Methyl (S)-5-((S)-2-(((S)-1-(((S)-1-Amino-1-oxo-3-phenylpropan-2-yl)amino)-3-(1H-indol-3-yl)-1-oxopropan-2-yl)carbamoyl)piperidin-1-yl)-4-(2-chloroacetamido)-5-oxopentanoate] (ClAc-E(OMe)[Pip]WF-NH2), which Ki is on record?
A: Its Ki is 0.231 µM.

Q: How did the Ki turn out when `COC(=O)CC[C@H](NC(=O)CCl)C(=O)N1CCCC[C@H]1C(=O)N[C@@H](Cc1c[nH]c2ccccc12)C(=O)N[C@@H](Cc1ccc2ccccc2c1)C(N)=O` [Compound 2-24, Methyl (S)-5-((S)-2-(((S)-1-(((S)-1-Amino-3-(naphthalen-2-yl)-1-oxopropan-2-yl)amino)-3-(1H-indol-3-yl)-1-oxopropan-2-yl)carbamoyl)piperidin-1-yl)-4-(2-chloroacetamido)-5-oxopentanoate] (ClAc-E(OMe)[Pip]W[2Nal]-NH2) was run?
A: Its Ki is 0.525 µM.

Q: How did the Ki turn out when `C[C@H](O)[C@H](NC(=O)CCl)C(=O)N1CCCC[C@H]1C(=O)N[C@@H](Cc1c[nH]c2ccccc12)C(=O)N[C@@H](Cc1ccc(O)cc1)C(N)=O` [Compound 2-26, (S)—N—((S)-1-(((S)-1-Amino-3-(4-hydroxyphenyl)-1-oxopropan-2-yl)amino)-3-(1H-indol-3-yl)-1-oxopropan-2-yl)-1-((2-chloroacetyl)-L-allothreonyl)piperidine-2-carboxamide] (ClAc-[aThr][Pip]WY-NH2) was run?
A: Its Ki is 0.299 µM.

Q: With `COC(=O)CC[C@H](NC(=O)CCl)C(=O)N1CCCC[C@H]1C(=O)N[C@@H](Cc1c[nH]c2ccccc12)C(=O)N(C)[C@@H](Cc1ccc(O)cc1)C(N)=O` [Compound 2-28, Methyl (S)-5-((S)-2-(((S)-1-(((S)-1-amino-3-(4-hydroxyphenyl)-1-oxopropan-2-yl)(methyl)-amino)-3-(1H-indol-3-yl)-1-oxopropan-2-yl)carbamoyl)piperidin-1-yl)-4-(2-chloroacetamido)-5-oxopentanoate] (ClAc-E(OMe)[Pip]W[NMeY]-NH2) as the compound, how does the Ki read?
A: Its Ki is over 10 µM.

Q: Which Ki does the source give for `CN(C(=O)CCl)[C@@H](CCC(=O)O)C(=O)N1CCCC[C@H]1C(=O)N[C@@H](Cc1c[nH]c2ccccc12)C(=O)N[C@@H](Cc1ccc(O)cc1)C(N)=O` [Compound 2-31, (S)-5-((S)-2-(((S)-1-(((S)-1-Amino-3-(4-hydroxyphenyl)-1-oxopropan-2-yl)amino)-3-(1H-indol-3-yl)-1-oxopropan-2-yl)carbamoyl)piperidin-1-yl)-4-(2-chloro-N-methylacetamido)-5-oxopentanoic acid] (ClAc-[NMeE][Pip]WY-NH2) here?
A: The Ki was 0.07 µM.

Q: How did the Ki turn out when `CC(=O)N[C@@H](CCC(=O)O)C(=O)N1CCCC[C@H]1C(=O)N[C@@H](Cc1c[nH]c2ccccc12)C(=O)N[C@@H](CCCNC(N)=O)C(N)=O` [Compound 2-33, (S)-4-Acetamido-5-((S)-2-(((S)-1-(((S)-1-amino-1-oxo-5-ureidopentan-2-yl)amino)-3-(1H-indol-3-yl)-1-oxopropan-2-yl)carbamoyl)piperidin-1-yl)-5-oxopentanoic acid] (Ac-E[Pip]W[Cit]-NH2) was run?
A: The Ki was over 10 µM.

Q: `C=CC(=O)N[C@H](CC(=O)O)C(=O)N1CCCC[C@H]1C(=O)N[C@@H](Cc1ccc2ccccc2c1)C(=O)N[C@@H](CCC(N)=O)C(N)=O` [Compound 2-34, (R)-3-Acrylamido-4-((S)-2-(((S)-1-(((S)-1,5-diamino-1,5-dioxopentan-2-yl)amino)-3-(naphthalen-2-yl)-1-oxopropan-2-yl)carbamoyl)piperidin-1-yl)-4-oxobutanoic acid] (Acryloyl-[dD][Pip][2Nal]Q-NH2) was tested. Which Ki did it give?
A: The Ki was over 10 µM.

Q: With `C=CC(=O)N[C@@H](CC(=O)O)C(=O)N1CCCC[C@H]1C(=O)N[C@@H](Cc1ccc2ccccc2c1)C(=O)N[C@@H](CCC(N)=O)C(N)=O` [Compound 2-35, (S)-3-Acrylamido-4-((S)-2-(((S)-1-(((S)-1,5-diamino-1,5-dioxopentan-2-yl)amino)-3-(naphthalen-2-yl)-1-oxopropan-2-yl)carbamoyl)piperidin-1-yl)-4-oxobutanoic acid] (Acryloyl-D[Pip][2Nal]Q-NH2) as the compound, how does the Ki read?
A: The Ki was over 10 µM.

Q: For `C=CC(=O)N[C@@H](CCC(=O)O)C(=O)N1CCCC[C@H]1C(=O)N[C@@H](Cc1ccc2ccccc2c1)C(=O)N[C@@H](CCC(N)=O)C(N)=O` [Compound 2b-1, (S)-4-Acrylamido-5-((S)-2-(((S)-1-(((S)-1,5-diamino-1,5-dioxopentan-2-yl)amino)-3-(naphthalen-2-yl)-1-oxopropan-2-yl)carbamoyl)piperidin-1-yl)-5-oxopentanoic acid] (Acryloyl-E[Pip][2Nal]Q-NH2), which Ki is on record?
A: The Ki was over 10 µM.

Q: With `C=CC(=O)N[C@H](CCC(=O)O)C(=O)N1CCCC[C@H]1C(=O)N[C@@H](Cc1ccc2ccccc2c1)C(=O)N[C@@H](CCC(N)=O)C(N)=O` [Compound 2b-2, (R)-4-Acrylamido-5-((S)-2-(((S)-1-(((S)-1,5-diamino-1,5-dioxopentan-2-yl)amino)-3-(naphthalen-2-yl)-1-oxopropan-2-yl)carbamoyl)piperidin-1-yl)-5-oxopentanoic acid] (Acryloyl-[dE][Pip][2Nal]Q-NH2) as the compound, how does the Ki read?
A: Its Ki is over 10 µM.

Q: Which Ki does the source give for `NC(=O)CC[C@H](NC(=O)[C@H](Cc1ccc2ccccc2c1)NC(=O)[C@@H]1CCCCN1C(=O)[C@@H](CCC(=O)O)NC(=O)CCl)C(N)=O` [Compound 2b-4, (R)-4-(2-Chloroacetamido)-5-((S)-2-(((S)-1-(((S)-1,5-diamino-1,5-dioxopentan-2-yl)amino)-3-(naphthalen-2-yl)-1-oxopropan-2-yl)carbamoyl)piperidin-1-yl)-5-oxopentanoic acid] (ClAc-[dE][Pip][2Nal]Q-NH2) here?
A: Its Ki is over 10 µM.

Q: With `NC(=O)CC[C@H](NC(=O)[C@H](Cc1ccc2ccccc2c1)NC(=O)[C@@H]1COCCN1C(=O)[C@H](CCC(=O)O)NC(=O)CCl)C(N)=O` [Compound 2b-5, (S)-4-(2-Chloroacetamido)-5-((S)-3-(((S)-1-(((S)-1,5-diamino-1,5-dioxopentan-2-yl)amino)-3-(naphthalen-2-yl)-1-oxopropan-2-yl)carbamoyl)morpholino)-5-oxopentanoic acid] (ClAc-E[Morpholine(3S-CO)][2Nal]Q-NH2) as the compound, how does the Ki read?
A: Its Ki is over 10 µM.

Q: With `NC(=O)[C@H](Cc1c[nH]cn1)NC(=O)[C@H](Cc1ccc2ccccc2c1)NC(=O)[C@@H]1CCCCN1C(=O)[C@H](CCC(=O)O)NC(=O)CCl` [Compound 2b-7, (S)-5-((S)-2-(((S)-1-(((S)-1-Amino-3-(1H-imidazol-4-yl)-1-oxopropan-2-yl)amino)-3-(naphthalen-2-yl)-1-oxopropan-2-yl)carbamoyl)piperidin-1-yl)-4-(2-chloroacetamido)-5-oxopentanoic acid] (ClAc-E[Pip][2Nal]H-NH2) as the compound, how does the Ki read?
A: The Ki was 4.02 µM.

Q: How did the Ki turn out when `NC(=O)CC[C@H](NC(=O)[C@H](Cc1csc2ccccc12)NC(=O)[C@@H]1CCCCN1C(=O)[C@H](CCC(=O)O)NC(=O)CCl)C(N)=O` [Compound 2b-8, (S)-5-((S)-2-(((S)-3-(Benzo[6]thiophen-3-yl)-1-(((S)-1,5-diamino-1,5-dioxopentan-2-yl)amino)-1-oxopropan-2-yl)carbamoyl)piperidin-1-yl)-4-(2-chloroacetamido)-5-oxopentanoic acid] (ClAc-E[Pip][Bta]Q-NH2) was run?
A: The Ki was 2.83 µM.

Q: For `N=C(N)NCCC[C@H](NC(=O)[C@H](Cc1ccc(-c2ccccc2)cc1)NC(=O)[C@@H]1CCCCN1C(=O)[C@H](CCC(=O)O)NC(=O)CCl)C(N)=O` [Compound 2b-9, (S)-5-((S)-2-(((S)-3-([1,1′-Biphenyl]-4-yl)-1-(((S)-1-amino-5-guanidino-1-oxopentan-2-yl)amino)-1-oxopropan-2-yl)carbamoyl)piperidin-1-yl)-4-(2-chloroacetamido)-5-oxopentanoic acid] (ClAc-E[Pip][Bip]R-NH2), which Ki is on record?
A: Its Ki is 0.19 µM.

Q: How did the Ki turn out when `N=C(N)NCCC[C@H](NC(=O)[C@@H](NC(=O)[C@@H]1CCCCN1C(=O)[C@H](CCC(=O)O)NC(=O)CCl)C(c1ccccc1)c1ccccc1)C(N)=O` [Compound 2b-10, (S)-5-((S)-2-(((S)-1-(((S)-1-Amino-5-guanidino-1-oxopentan-2-yl)amino)-1-oxo-3,3-diphenylpropan-2-yl)carbamoyl)piperidin-1-yl)-4-(2-chloroacetamido)-5-oxopentanoic acid] (ClAc-E[Pip][Dip]R-NH2) was run?
A: The Ki was 0.85 µM.

Q: With `N=C(N)NCCC[C@H](NC(=O)[C@H](Cc1c2ccccc2cc2ccccc12)NC(=O)[C@@H]1CCCCN1C(=O)[C@H](CCC(=O)O)NC(=O)CCl)C(N)=O` [Compound 2b-11, (S)-5-((S)-2-(((S)-1-(((S)-1-Amino-5-guanidino-1-oxopentan-2-yl)amino)-3-(anthracen-9-yl)-1-oxopropan-2-yl)carbamoyl)piperidin-1-yl)-4-(2-chloroacetamido)-5-oxopentanoic acid] (ClAc-E[Pip][Ala(9-anthryl)]R-NH2) as the compound, how does the Ki read?
A: The Ki was 0.609 µM.

Q: Which Ki does the source give for `NC(=O)[C@H](CO)NC(=O)[C@H](Cc1ccc2ccccc2c1)NC(=O)[C@@H]1CCCCN1C(=O)[C@H](CCC(=O)O)NC(=O)CCl` [Compound 2b-12, (S)-5-((S)-2-(((S)-1-(((S)-1-Amino-3-hydroxy-1-oxopropan-2-yl)amino)-3-(naphthalen-2-yl)-1-oxopropan-2-yl)carbamoyl)piperidin-1-yl)-4-(2-chloroacetamido)-5-oxopentanoic acid] (ClAc-E[Pip][2Nal]S-NH2) here?
A: Its Ki is 0.23 µM.

Q: Which Ki does the source give for `CC(C)(C)c1ccc(C[C@H](NC(=O)[C@@H]2CCCCN2C(=O)[C@H](CCC(=O)O)NC(=O)CCl)C(=O)N[C@@H](CCCNC(=N)N)C(N)=O)cc1` [Compound 2b-14, (S)-5-((S)-2-(((S)-1-(((S)-1-Amino-5-guanidino-1-oxopentan-2-yl)amino)-3-(4-(tert-butyl)phenyl)-1-oxopropan-2-yl)carbamoyl)piperidin-1-yl)-4-(2-chloroacetamido)-5-oxopentanoic acid] (ClAc-E[Pip][Phe(4-tBu)]R-NH2) here?
A: The Ki was 0.19 µM.
